# Test results as given in US20220047545A1 (priority 2020, published 2022).
# Key:
# [1] = test system: lysosomal/endosomal pH in A549 cells; assay: Endosomal/lysosomal pH assay; assay type: cell-based, human; details: 5.0-25 μg/ml; control approximately pH=5.0
# Experimental: Endosomal/lysosomal pH assay: Endosomal pH was assessed according to a previously reported protocol [54]. […] Acridine orange (Thermo Fisher Scientific, Waltham, Mass.) was added directly to each dish to reach a final concentration of 6.6 μg/ml. The cells were additionally incubated at 37° C. with 5% CO2 for 20 min. and washed three times with 1×PBS. Live Cell Imaging Solution (LCIS) (Thermo Fisher Scientific, Waltham, Mass.) was added to the wells, and images were taken using a Zeiss Axio Observer A1 fluorescence microscope with a 40× magnification. […] Results are expressed as a percentage of polyphenol-free control (mean+/−SD, n=3).
# A concurrent experiment was performed using pHrodo™ Green AM Intracellular pH Indicator (Thermo Fisher Scientific, Waltham, Mass.) according to the manufacturer's protocol. […] The plate was incubated for 30 min. at 37° C., washed again with LCIS, and fluorescence was measured at Ex/Em=509/533 nm wavelength using a spectrofluorometer (Tecan Group Ltd, Switzerland). pH identification was performed based on standard curve, using an Intracellular pH Calibration Buffer Kit according to the manufacturer's protocol (Thermo Fisher Scientific, Waltham, Mass.). […] Next, the fluorescence was measured Ex/Em=509/533 nm wavelength. […]
# [2] = test system: cathepsin L expression in A549 cells; assay: Cathepsin L expression in A549 cells (Western blot); assay type: cell-based, human; details: for cathepsin L expression at protein level: A549 cells
# Experimental: Proteins (50 μg/well) were separated on 8-16% gradient SDS-PAGE gels and transferred to a PVDF membrane. […] Images were captured with Azure™ cSeries digital imaging system (Azure Biosystems, Dublin, Calif.) with auto-exposure settings. Densitometry was performed with NIH ImageJ software.
# Cathepsin L expression: Expression of cathepsin L in cells was performed using Western blot. Briefly, 48 hours prior to the analysis, A549 cells were treated with PB at 5.0, and 10 μg/ml concentrations. Next, cells were washed with 1×PBS, lysed, and processed according to procedure described below.
# Western blot: […] cells were lysed with lysis buffer [RIPA buffer plus 1× Protease Inhibitor (ThermoFisher Scientific, Waltham, Mass.)]. The protein estimation was performed with Dc Protein Assay (Bio-Rad, Hercules, Calif.). A 45 μg/well of protein was separated on 8-16% gradient SDS-PAGE gels and transferred to a PVDF membrane. Detection was performed with antibodies against cathepsin L at 1:200 dilution (Santa Cruz Biotechnology, Santa Cruz, Calif.) and against β-actin at 1:1000 dilution (Cell Signaling, Danvers, Mass.).
# hACE2 [3] = molecular target: T1, hACE2 (Homo sapiens, UniProt Q9BYF1); assay: ACE2 binding assay (ACE2 Inhibitor Screening Assay Kit); set-up: purchased BPS Bioscience
# [4] = molecular target: RBD of SARS-CoV-2 spike protein (Severe acute respiratory syndrome coronavirus 2, UniProt P0DTC2); details: literature computational study; cited from earlier work
# hACE2 [5] = molecular target: T1, hACE2; details: literature computational study (Jena et al.); cited from earlier work
# [6] = molecular target: RBD of SARS-CoV-2 spike protein binding to hACE2 receptor (Severe acute respiratory syndrome coronavirus 2, UniProt P0DTC2)
# [7] = molecular target: T2, cathepsin L in A549 cells (Homo sapiens, UniProt P07711); assay: Cellular cathepsin L activity (lysates of treated A549 cells); assay type: cell-based; details: 25 μg/ml, not significant
# T2 construct: A549 cells were seeded in 6-well plates; endogenous in cells; host or cells: A549 (ATCC)
# Experimental: Cathepsin L activity assays: Cellular cathepsin L activity assays were performed utilizing a Cathepsin L Activity Assay Kit (Abcam, Cambridge, Mass.) according to the manufacturer's protocol. […] The samples were then centrifuged for 2 min. at 4° C. to remove any insoluble material. Supernatants were collected and transferred to clean tubes that were kept on ice. […] The plates were incubated at 37° C. for 1 h and fluorescence signal was measure at Ex/Em=400/505 nm wavelength with a spectrofluorometer (Tecan Group Ltd, Switzerland). […] Results are expressed as a percentage of polyphenol-free control (mean+/−SD, n=6).
# Cathepsin L activity assay and its cellular expression: Cathepsin L activity: Experiment was performed in cell lysates using a Cathepsin L Activity Assay Kit (Abcam, Cambridge, Mass.) according to the manufacturer's protocol. […] After 3 minutes of centrifuged for at 4° C., supernatants were collected and enzymatic reaction was set up by mixing 50 μl of treated sample, 50 μl of control sample, 50 μl of background control sample, 50 μl of positive and negative controls. […] Samples were incubated at 37° C. for 1 hour, and fluorescence was recorded at extension/emission=400/505 nm with a fluorescence spectrometer (Tecan Group Ltd., Switzerland).
# [8] = molecular target: T3, cellular hACE2 in hACE2/A549 cells (Homo sapiens, UniProt Q9BYF1); assay: Cellular hACE2 activity assay; details: cell-based
# T3 construct: host or cells: A549 (human alveolar epithelial) stably overexpressing hACE2
# Experimental: ACE2 activity assays: To determine the inhibitory effect of selected polyphenols on the activity of cellular hACE2 protein, hACE2/A549 cells were seeded in 48-well plates and allowed to adhere for 24 h or until reaching 99-100% of confluence. […] (Dnp)-OH. Finally, the plates were incubated at 37° C. for 1 h, and the fluorescence signal was measured at Ex/Em=320/405 nm wavelength with a spectrofluorometer (Tecan Group Ltd, Switzerland). […] Results are expressed as a percentage of polyphenol-free control (mean+/−SD, n=6).
# recombinant hTMPRSS2 = molecular target: T4, recombinant hTMPRSS2 (Homo sapiens, UniProt O15393); assay: Recombinant TMPRSS2 activity assay (cell-free); assay type: biochemical; details: 10-25 μg/ml, 3 h treatment
# T4 construct: purchased Creative BioMart
# Experimental: To this reaction 10 μM of TMPRSS2 enzyme in assay buffer (50 mM Tris pH=8, 150 mM NaCl) was added. Following 1 h incubation at RT, detection of fluorescent signal was performed using a spectrofluorometer at Ex/Em=360/440 nm wavelength (Tecan Group Ltd, Switzerland). The positive control was 100 μM camostat mesylate. […] Results are expressed as a percentage of polyphenol-free control (mean+/−SD, n=6).
# Fluorescence was assessed using a spectrofluorometer at extension/emission=360/440 nm (Tecan Group Ltd., Switzerland). The positive control was 100 μM camostat mesylate.
# [9] = test system: A549 cells expressing eGFP spike protein fusing with hACE2-overexpressing A549 cells; assay type: cell-based, human; details: 25 μg/ml, 4 h
# [10] = molecular target: T5, human recombinant cathepsin L (Homo sapiens, UniProt P07711); assay: Cathepsin L activity, purified/recombinant enzyme (cell-free); assay type: biochemical
# T5 construct: purchased BPS Bioscience
# Experimental: Positive control contained only cathepsin L, and negative control containing cathepsin L and cathepsin L inhibitor E64d (25 μM). The fluorescence was recorded at extension/emission=360/480 nm with a fluorescence spectrometer (Tecan Group Ltd., Switzerland).
# hACE2 [11] = molecular target: T1, hACE2; assay: Recombinant hACE2 activity assay (cell-free); assay type: biochemical; set-up: purchased BPS Bioscience
# Experimental: To determine the inhibitory effect of selected polyphenols on the activity of recombinant hACE2 protein, an ACE2 Activity Screening Assay Kit (BPS Bioscience, San Diego, Calif.) was used according to the manufacturer's protocol. […] The positive control was a sample containing only ACE2 enzyme, and the negative control was a sample containing ACE2 enzyme and 10% DMSO. ACE2 fluorogenic substrate (10 μM) was added to each well, and the plate was incubated for 1 h at RT. The fluorescence was measured at Ex/Em=535/595 nm wavelength using a spectrofluorometer (Tecan Group Ltd, Switzerland). […] Results are expressed as a percentage of polyphenol-free control (mean+/−SD, n=6).
# The positive control contained only ACE2 enzyme, and the negative control additionally contained 10% DMSO.
# T1 sequence (Q9BYF1 18-805): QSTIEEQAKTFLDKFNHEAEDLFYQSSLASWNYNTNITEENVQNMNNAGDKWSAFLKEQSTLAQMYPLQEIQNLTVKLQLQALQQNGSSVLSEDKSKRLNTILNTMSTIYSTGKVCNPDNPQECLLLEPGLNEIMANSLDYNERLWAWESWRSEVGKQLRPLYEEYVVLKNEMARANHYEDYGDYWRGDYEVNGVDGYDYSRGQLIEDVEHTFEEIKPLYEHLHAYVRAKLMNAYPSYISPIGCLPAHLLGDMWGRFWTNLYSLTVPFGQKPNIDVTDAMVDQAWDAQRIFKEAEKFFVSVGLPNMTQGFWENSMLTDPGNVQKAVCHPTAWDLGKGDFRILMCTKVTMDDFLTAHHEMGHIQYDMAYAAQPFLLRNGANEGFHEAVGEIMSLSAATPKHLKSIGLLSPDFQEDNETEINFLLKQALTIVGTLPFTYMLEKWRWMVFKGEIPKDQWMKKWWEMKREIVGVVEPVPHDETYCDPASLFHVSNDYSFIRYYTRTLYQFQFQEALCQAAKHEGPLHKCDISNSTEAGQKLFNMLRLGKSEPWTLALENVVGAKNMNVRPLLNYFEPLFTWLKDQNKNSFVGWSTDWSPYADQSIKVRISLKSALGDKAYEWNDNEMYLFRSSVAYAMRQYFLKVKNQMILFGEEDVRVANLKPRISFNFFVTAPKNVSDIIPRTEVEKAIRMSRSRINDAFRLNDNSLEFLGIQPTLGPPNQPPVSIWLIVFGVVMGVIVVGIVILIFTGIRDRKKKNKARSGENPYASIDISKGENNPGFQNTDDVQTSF
# T3 sequence (Q9BYF1 18-805): as above
# T5 sequence (P07711 114-333): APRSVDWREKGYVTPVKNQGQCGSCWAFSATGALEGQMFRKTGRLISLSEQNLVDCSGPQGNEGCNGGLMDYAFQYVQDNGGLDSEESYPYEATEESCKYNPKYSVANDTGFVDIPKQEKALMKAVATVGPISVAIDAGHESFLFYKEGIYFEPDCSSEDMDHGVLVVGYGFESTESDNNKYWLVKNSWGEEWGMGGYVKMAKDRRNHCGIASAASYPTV
# T2 sequence (P07711 114-333): as above
# T4 sequence (O15393 whole entry): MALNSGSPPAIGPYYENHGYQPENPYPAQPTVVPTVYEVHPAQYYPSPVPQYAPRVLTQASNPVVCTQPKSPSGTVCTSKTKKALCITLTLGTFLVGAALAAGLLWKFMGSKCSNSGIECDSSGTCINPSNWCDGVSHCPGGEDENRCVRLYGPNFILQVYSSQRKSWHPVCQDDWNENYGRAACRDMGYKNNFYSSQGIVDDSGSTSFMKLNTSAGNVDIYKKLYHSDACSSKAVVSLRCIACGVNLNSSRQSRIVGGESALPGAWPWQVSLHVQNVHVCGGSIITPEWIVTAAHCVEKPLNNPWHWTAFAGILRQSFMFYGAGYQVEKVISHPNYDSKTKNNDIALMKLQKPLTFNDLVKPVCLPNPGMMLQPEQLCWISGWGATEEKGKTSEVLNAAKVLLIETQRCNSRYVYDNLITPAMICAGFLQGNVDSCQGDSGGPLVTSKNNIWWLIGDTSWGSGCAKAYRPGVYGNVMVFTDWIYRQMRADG
compound,measurement,setting,value
"Theaflavin-3,3′-digallate",lysosomal/endosomal pH reached,[1],5.5-6.0
same,decrease of cathepsin L expression,[2]; starting from 10 μg/ml,about 20%
COc1cc(/C=C/C(=O)CC(=O)/C=C/c2ccc(O)c(OC)c2)ccc1O [Curcumin],concentration at which binding efficacy to ACE2 was shown,hACE2 [3],10 to 25 µg/mL
same,binding energy ΔG to RBD / viral spike protein,[4],-10.5 kcal/mol
same,binding energy to hACE2,hACE2 [5],-8.9 kcal/mol
same,cathepsin L expression at protein level,[2],neither brazilin nor curcumin down-regulated cathepsin L expression
same,Binding with RBD (% of control ± SD),[6],100 ± 0.2 % of control
Oc1ccc2c(c1)OC[C@]1(O)Cc3cc(O)c(O)cc3[C@H]21 [Brazilin],direct binding to ACE2 receptor,"hACE2 [3]; polyphenols 5.0-25 μg/ml, PB 5.0 and 10 μg/ml",does not bind to ACE2 directly
same,decrease of cathepsin L activity in cell lysates,[7],15%
same,effect on ACE2 activity,[8],no effects
same,inhibition of recombinant hTMPRSS2 activity,recombinant hTMPRSS2,20-30%
same,decrease of cell-cell fusion,[9],40%
same,cathepsin L expression at protein level,[2],neither brazilin nor curcumin down-regulated cathepsin L expression
same,Binding with RBD (% of control ± SD),[6],100 ± 0.1 % of control
same,effect on recombinant cathepsin L,[10],"minor, not significant effect"
same,effect on ACE2 activity,hACE2 [11],no effects
catechin [cathechin],binding energy ΔG to RBD / viral spike protein,[4],-7.9 kcal/mol
same,binding energy to hACE2,hACE2 [5],-7.8 kcal/mol
O=c1c(O)cc([C@H]2Oc3cc(O)cc(O)c3C[C@H]2O)cc2c([C@H]3Oc4cc(O)cc(O)c4C[C@H]3O)cc(O)c(O)c12 [Theaflavin],Binding with RBD (% of control ± SD),[6],27.3 ± 1.4 % of control
O=C(/C=C/c1ccc(O)c(O)c1)O[C@@H]1C[C@](O)(C(=O)O)C[C@@H](O)[C@H]1O [Chlorogenic acid],Binding with RBD (% of control ± SD),[6],25.5 ± 2.5 % of control
COc1cc(/C=C/c2ccc(O)cc2)cc(OC)c1 [Pterostillbene],Binding with RBD (% of control ± SD),[6],23.1 ± 2.8 % of control
COc1ccc([C@@H]2CC(=O)c3c(O)cc(O)cc3O2)cc1O [Hesperetin],Binding with RBD (% of control ± SD),[6],42.5 ± 4.6 % of control
C[S+]([O-])CCCCN=C=S [L-sulforaphane],Binding with RBD (% of control ± SD),[6],30.2 ± 3.6 % of control
"O=C(OC1Cc2c(O)cc(O)cc2OC1c1cc(O)c(O)c(O)c1)c1cc(O)c(O)c(O)c1 (single isomer, unassigned; (+)) [(+)-epigallocatechin gallate]",Binding with RBD (% of control ± SD),[6],87.5 ± 6.8 % of control
"C=C(C)[C@@H]1CCC(C)=C[C@H]1c1c(O)cc(CCCCC)cc1O [Cannabidiol, reference compound]",Binding with RBD (% of control ± SD),[6],1.4 ± 0.3 % of control
